Test results from paper PMC10316653 (iScience, 2023).
Like-named read-outs stand apart in the source and are kept apart here. *1 amine or outer side, *2 acyl side, *3 side chain or, on linkers, in order; H or OH if unused. Where a SMILES comes first, the peptide text is derived from it. Bridges are numbered along the chain shown (N, C = ends). [ ]: non-standard residue; d: D form. X1 = CC(=O)NC(C(=O)OC(C(C)C)C(N[*:1])C(=O)[*:2])C(O)C(C)C; PhLac = O=C(O)[CH](O)Cc1ccccc1; NMeT = CN[CH](C(=O)O)[CH](C)O; NMeA = CN[CH](C)C(=O)O; NMeDha = C=C(NC)C(=O)O

Tests used:
A2BAR [1] = target: T1, A2BAR (Rattus norvegicus, UniProt P29276); test: cAMP accumulation assay in H9C2 cells endogenously expressing the A2BAR; type: cell-based; settings: for effect on PMA-induced cAMP accumulation: antagonist 1 µM
T1 sequence (P29276 1-332): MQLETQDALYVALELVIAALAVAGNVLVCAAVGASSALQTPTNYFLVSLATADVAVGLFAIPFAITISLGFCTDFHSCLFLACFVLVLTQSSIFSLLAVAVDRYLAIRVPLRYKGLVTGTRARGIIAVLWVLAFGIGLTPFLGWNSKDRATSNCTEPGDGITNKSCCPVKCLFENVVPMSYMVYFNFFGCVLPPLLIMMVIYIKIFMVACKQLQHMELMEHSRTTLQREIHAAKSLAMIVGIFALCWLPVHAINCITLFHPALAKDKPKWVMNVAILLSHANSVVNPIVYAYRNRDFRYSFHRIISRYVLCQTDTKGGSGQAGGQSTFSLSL

A1AR = target: T2, A1AR (Rattus norvegicus, UniProt P25099); test: A1AR-mediated inhibition of forskolin-stimulated cAMP accumulation in H9C2 cells; type: cell-based
T2 sequence (P25099 1-326): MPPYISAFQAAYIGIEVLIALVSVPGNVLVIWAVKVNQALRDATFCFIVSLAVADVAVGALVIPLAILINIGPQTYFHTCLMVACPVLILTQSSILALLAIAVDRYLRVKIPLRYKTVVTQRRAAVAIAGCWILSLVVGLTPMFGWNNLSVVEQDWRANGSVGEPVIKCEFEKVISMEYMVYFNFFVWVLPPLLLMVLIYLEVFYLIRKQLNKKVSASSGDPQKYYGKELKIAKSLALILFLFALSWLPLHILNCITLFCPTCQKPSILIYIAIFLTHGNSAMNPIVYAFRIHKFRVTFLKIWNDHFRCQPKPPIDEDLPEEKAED

A2BAR [2] = target: T3, A2BAR (Homo sapiens, UniProt P29275); test: cAMP accumulation assay in HEK293-A2B cells; type: cell-based; settings: for effect on PKC-induced A2BAR activation (cAMP): inhibitor 20 min before PMA (Figure 10C)
T3 sequence (P29275 1-332): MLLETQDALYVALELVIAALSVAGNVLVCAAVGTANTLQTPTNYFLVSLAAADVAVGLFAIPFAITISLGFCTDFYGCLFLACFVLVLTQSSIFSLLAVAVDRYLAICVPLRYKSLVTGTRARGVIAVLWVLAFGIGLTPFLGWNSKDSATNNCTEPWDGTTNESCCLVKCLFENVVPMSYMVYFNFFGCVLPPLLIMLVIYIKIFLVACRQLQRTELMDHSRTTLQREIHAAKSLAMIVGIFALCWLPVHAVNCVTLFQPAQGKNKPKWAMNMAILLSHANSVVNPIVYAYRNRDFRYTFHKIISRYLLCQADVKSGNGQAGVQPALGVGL

A2BAR [3] = target: T3, A2BAR; test: cAMP accumulation assay in naive HEK293 cells; type: cell-based
H9C2 cells = test: Intracellular calcium mobilization assay in H9C2 cells; type: cell-based, rat; settings: for inhibition of UTP-induced calcium response: 1 μM pretreatment 20 min
ERK1/2 = ERK1/2 activity assay in H9C2 cells; type: cell-based, rat; settings: for effect on PMA-induced ERK1/2 phosphorylation: 1 μM added 20 min before PMA 1 μM
A2BAR [4] = target: T3, A2BAR; test: Intracellular calcium mobilization assay in HEK293-A2B cells; type: cell-based; settings: for effect on NECA-induced intracellular calcium mobilization: 1 μM pretreatment 20 min
A2BAR [5] = target: T3, A2BAR; test: Radioligand binding to membranes from HEK293-A2B cells; settings: for displacement of specific binding of [3H]NECA (25 nM): membranes from HEK293-A2B cells, 1 μM
A2BAR [6] = target: T4, A2BAR (Mus musculus, UniProt Q60614); test: cAMP accumulation in NIH3T3 cells endogenously expressing the A2BAR; type: cell-based; settings: 20 min
T4 sequence (Q60614 1-332): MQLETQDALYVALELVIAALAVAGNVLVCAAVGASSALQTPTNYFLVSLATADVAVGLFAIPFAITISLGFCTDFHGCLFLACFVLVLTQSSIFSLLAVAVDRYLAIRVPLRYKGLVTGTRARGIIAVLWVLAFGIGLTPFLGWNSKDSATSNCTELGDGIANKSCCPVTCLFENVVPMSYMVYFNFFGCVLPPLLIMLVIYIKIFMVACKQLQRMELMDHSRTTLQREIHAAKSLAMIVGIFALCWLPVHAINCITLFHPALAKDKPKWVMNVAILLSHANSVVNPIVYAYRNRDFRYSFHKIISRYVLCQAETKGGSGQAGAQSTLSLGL

A2BAR [7] = target: T3, A2BAR; test: cAMP accumulation in Gi-null HEK293 cells; type: cell-based; settings: PMA 1 μM 40 min
recombinant rat A2BAR = target: T5, recombinant rat A2BAR (Rattus norvegicus, UniProt P29276); test: cAMP accumulation in H9C2 cells expressing the recombinant rat A2BAR; type: cell-based; settings: H9C2 cells with rat A2BAR expression, 0.3 μg/well
T5 sequence (P29276 1-332): T1 sequence (P29276 1-332)

A2BAR [8] = target: T3, A2BAR; test: cAMP accumulation in Gi-null HEK293-A2B cells; type: cell-based; settings: read-out: Emax of cAMP accumulation (10 μM forskolin in HEK293-A2B = 100%)
A2BAR [9] = target: T3, A2BAR; type: cell-based
adenylyl cyclase = test: Forskolin-stimulated cAMP accumulation in H9C2 cells; type: cell-based, rat; settings: PMA 1 μM 40 min, forskolin 10 μM
[10] = naive HEK293 cells, inhibitor 1 μM, PMA 1 μM, BAY 10 μM
[11] = HEK293-A2B cells treated with PMA 1 μM 40 min

## N#Cc1c(N)nc(SCC(N)=O)c(C#N)c1-c1ccc(OCC2CC2)cc1 [BAY]
A2BAR [1]; H9C2 cells, agonist 20 min
  induction of cAMP accumulation: induced robust cAMP accumulation

## OC1C(CCl)OC(n2cnc3c(NC4CC5CCC4C5)ncnc32)C1O (stereo not shown) [Cl-ENBA]
A1AR; 1 μM, forskolin 10 μM
  inhibited cAMP accumulation stimulated by forskolin: neither
A1AR; range of concentrations (Figure S1)
  inhibition of forskolin's effect on cAMP: unable to inhibit forskolin’s effect

## CN(C)CCCn1cc(C2=C(c3c[nH]c4ccccc34)C(=O)NC2=O)c2ccccc21 [GF109203X]
A2BAR [2]; HEK293-A2B cells
  effect on PKC-induced A2BAR activation (cAMP): significantly inhibited
A2BAR [3]; naive HEK293 cells, in the presence of 1 μM GF109203X
  remaining enhancement: 26%
A2BAR [3]; [10]
  effect on PKC (PMA)-induced enhancement of BAY-induced cAMP accumulation: blocked PKC-induced enhancement
  inhibition of PKC-induced enhancement of BAY-induced cAMP accumulation: 74%

## COc1ccc2c(c1)c(C1=C(c3c[nH]c4ccccc34)C(=O)NC1=O)cn2CCCN(C)C [GO6983]
A2BAR [2]; HEK293-A2B cells, GO6983 1 μM
  effect on PKC- and NECA-induced cAMP accumulation: blocked PKC- but not NECA-induced cAMP accumulation
A2BAR [2]; HEK293-A2B cells
  effect on PKC-induced A2BAR activation (cAMP): significantly inhibited
A2BAR [1]; H9C2 cells, 1 μM, no PMA
  effect on BAY-induced cAMP accumulation: did not affect BAY-induced cAMP accumulation
A2BAR [3]; [10]
  effect on PKC (PMA)-induced enhancement of BAY-induced cAMP accumulation: blocked PKC-induced enhancement
H9C2 cells; GO6983 1 μM 20 min before PMA 1 μM
  effect on PMA inhibition of UTP calcium response: completely reversed
ERK1/2
  effect on PMA-induced ERK1/2 phosphorylation: diminished
A2BAR [4]; GO6983 1 μM before PMA 1 μM
  effect on PMA inhibition of NECA-induced calcium mobilization: completely blocked

## O=S(=O)(NCCNC/C=C/c1ccc(Br)cc1)c1cccc2cnccc12 [H89]
A2BAR [3]; HEK293 cells, H89 10 μM, PMA 1 μM
  effect on PMA enhancement of cAMP accumulation: unaffected
ERK1/2
  effect on PMA-induced ERK1/2 phosphorylation: not affected

## CCCn1c(=O)c2[nH]c(-c3ccc(OCC(=O)Nc4ccc(C#N)cc4)cc3)nc2n(CCC)c1=O [MRS1754]
A2BAR [2]; HEK293-A2B cells
  KB against BAY more potent than IC50 against PKC: over 100 fold
A2BAR [1]; naive H9C2 cells
  effect on PMA-induced cAMP accumulation: inhibited
A2BAR [5]
  displacement of specific binding of [3H]NECA (25 nM): 100%

## CSc1nc(N)c2ncn([C@H]3[C@H](O)[C@H](O)[C@]4(COP(=O)([O-])OP(=O)([O-])[O-])C[C@H]34)c2n1.[Na+].[Na+].[Na+] [MRS2365, [[(1R,2R,3S,4R,5S)-4-[6-amino-2-(methylthio)-9H-purin-9-yl]-2,3-dihydroxybicyclo[3.1.0]hex-1-yl]methyl] diphosphoric acid monoester trisodium salt]
A2BAR [2]; HEK293-A2B cells, 1 μM, 20 min before NECA
  effect of pretreatment on A2BAR (NECA)-mediated cAMP accumulation: did not show any effect

## CCNC(=O)[C@H]1O[C@@H](n2cnc3c(N)ncnc32)[C@H](O)[C@@H]1O [NECA, adenosine-5′-N-ethyluronamide]
H9C2 cells
  induction of calcium mobilization: did not induce calcium mobilization

## CCCCCCCCCCCCCC(=O)O[C@@H]1[C@@H](C)[C@@]2(O)[C@@H](C=C(CO)C[C@]3(O)C(=O)C(C)=C[C@@H]23)[C@@H]2C(C)(C)[C@]12OC(C)=O [PMA, phorbol 12-myristate 13-acetate]
A2BAR [2]; EC50, cAMP accumulation, HEK293-A2B cells, incubated 60 min
  EC50: 56.4 nM
A2BAR [2]; HEK293-A2B cells, PMA 40 min
  effect of pretreatment on NECA- or BAY-induced cAMP accumulation: raised the basal cAMP level but not the Emax
A2BAR [2]; read-out: activation Emax (Emax of NECA = 100%)
  Emax: 84.7%
A2BAR [1]; H9C2 cells, PMA 1 nM pretreatment 40 min
  enhancement of A2BAR agonist-induced cAMP accumulation: 25%
A2BAR [1]; naive H9C2 cells, 5 min (Figure S10)
  Emax of cAMP accumulation relative to NECA: about 20 % of NECA
A2BAR [1]; naive H9C2 cells, 20 min (Figure 7C)
  maximal cAMP level (10 μM NECA = 100%): 20.0 ± 0.36%
A2BAR [1]; potency of enhancing effect on A2BAR-mediated cAMP accumulation, H9C2 cells
  EC50: ~1 nM
A2BAR [6]
  cAMP accumulation versus NECA = 100%: 34.9 ± 7.7%
A2BAR [7]
  enhancement of the function of BAY (cAMP accumulation): 37%
Recombinant rat A2BAR
  maximal cAMP level (10 μM NECA = 100%): 65.4 ± 8.0%
A2BAR [3]; HEK293, read-out: maximal stimulation relative to Emax of NECA
  Emax: < 10%
A2BAR [3]; naive HEK293 cells, 20 min (Figure 7D)
  maximal agonist effect (10 μM NECA = 100%): 7.36 ± 1.08%
A2BAR [3]; wild-type HEK293 cells, PMA 1 μM 40 min
  enhancement of the function of BAY (cAMP accumulation): 95%
H9C2 cells
  inhibition of UTP-induced calcium response: completely inhibited
ERK1/2; PMA 1 μM, sustained over 30 min
  ERK1/2 phosphorylation: > 300 % above baseline
A2BAR [8]
  Emax: 19.3 ± 3.1%
A2BAR [9]; HEK293, read-out: Emax of cAMP accumulation (10 μM forskolin = 100%)
  Emax: 49.3 ± 4.6%
A2BAR [9]; HEK293 cells with recombinant human A2BAR expression, 0.3 μg/well
  maximal agonist effect (10 μM NECA = 100%): 35.5 ± 5.0%
A2BAR [4]
  induction of calcium mobilization: did not induce calcium mobilization
  effect on NECA-induced intracellular calcium mobilization: inhibited
A2BAR [5]; [11]
  effect of treatment on agonist [3H]NECA binding: significantly increased agonist binding
  effect of treatment on antagonist [3H]DPCPX binding: did not affect
A2BAR [5]
  displacement of specific binding of [3H]NECA (25 nM): 1.6 ± 1.2%
Adenylyl cyclase
  effect of pretreatment on forskolin-stimulated cAMP accumulation: did not inhibit or enhance

## CCCn1c(=O)[nH]c2nc(-c3ccc(S(=O)(=O)N4CCN(c5ccc(Cl)cc5)CC4)cc3)[nH]c2c1=O [PSB603]
A2BAR [1]; naive H9C2 cells
  effect on PMA-induced cAMP accumulation: inhibited
ERK1/2
  effect on PMA-induced ERK1/2 phosphorylation: not affected
A2BAR [4]
  effect on NECA-induced intracellular calcium mobilization: inhibited

## CN(C)C[C@H]1CCn2c(c(C3=C(c4cn(C)c5ccccc45)C(=O)NC3=O)c3ccccc32)C1 [RO320432]
A2BAR [3]; [10]
  effect on PKC (PMA)-induced enhancement of BAY-induced cAMP accumulation: blocked PKC-induced enhancement

## CC(C)[C@H]1C(=O)N[C@H](CO)Cc2cc(NC(=O)/C=C/C=C/c3ccc(C(F)(F)F)cc3)ccc2N1C [TPPB]
A2BAR [3]; HEK293 cells, TPPB 1 µM 40 min
  effect of pretreatment on BAY-induced cAMP accumulation: also enhanced the function of BAY

## O=c1ccn([C@@H]2O[C@H](COP(=O)(O)OP(=O)(O)OP(=O)(O)O)[C@@H](O)[C@H]2O)c(=O)[nH]1 [UTP]
H9C2 cells
  induction of calcium mobilization: induced a robust calcium response

## C=C1C(=O)NC(C)C(=O)N(C)C(C)C(=O)NC(C(OC(=O)C(NC(C)=O)C(O)C(C)C)C(C)C)C(=O)N(C)C(C(C)OC)C(=O)OC(C)C(NC(C)=O)C(=O)OC(Cc2ccccc2)C(=O)N1C (stereo not shown) [YM254890] (Ac-T[PhLac][NMeDha]A[NMeA][X1][NMeT](Me); ester 1-C; configuration not given here)
H9C2 cells
  inhibition of UTP-induced calcium response: completely inhibited
